Measurements as given in BindingDB's records for doi:10.1124/jpet.102.047183 (Abbott Laboratories, 2003).
“And” between values parts separate entries of the source, which are not always exact repeats. Identical values can stand only once.

Experiments:
[1] = target: T1, 5-hydroxytryptamine receptor 3A (Rattus norvegicus, UniProt P35563)
T1 sequence (P35563 whole entry): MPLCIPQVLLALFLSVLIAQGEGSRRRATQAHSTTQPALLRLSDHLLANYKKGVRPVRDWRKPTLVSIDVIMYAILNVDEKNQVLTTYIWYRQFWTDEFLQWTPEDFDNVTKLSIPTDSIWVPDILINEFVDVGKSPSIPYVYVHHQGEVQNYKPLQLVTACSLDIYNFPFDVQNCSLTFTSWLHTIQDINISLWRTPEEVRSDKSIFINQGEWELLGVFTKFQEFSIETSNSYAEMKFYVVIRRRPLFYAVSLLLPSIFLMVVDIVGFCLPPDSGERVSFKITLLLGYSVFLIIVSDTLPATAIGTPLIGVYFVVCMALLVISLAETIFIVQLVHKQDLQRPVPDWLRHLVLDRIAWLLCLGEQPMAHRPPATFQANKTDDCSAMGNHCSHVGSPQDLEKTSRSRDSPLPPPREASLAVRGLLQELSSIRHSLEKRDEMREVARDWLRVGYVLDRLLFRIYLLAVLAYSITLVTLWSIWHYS

Histamine H3 receptor [2] = target: Histamine H3 receptor (Cavia porcellus, UniProt Q9JI35)
[3] = target: T2, Alpha-2C adrenergic receptor (Homo sapiens, UniProt P18825)
T2 sequence (P18825 whole entry): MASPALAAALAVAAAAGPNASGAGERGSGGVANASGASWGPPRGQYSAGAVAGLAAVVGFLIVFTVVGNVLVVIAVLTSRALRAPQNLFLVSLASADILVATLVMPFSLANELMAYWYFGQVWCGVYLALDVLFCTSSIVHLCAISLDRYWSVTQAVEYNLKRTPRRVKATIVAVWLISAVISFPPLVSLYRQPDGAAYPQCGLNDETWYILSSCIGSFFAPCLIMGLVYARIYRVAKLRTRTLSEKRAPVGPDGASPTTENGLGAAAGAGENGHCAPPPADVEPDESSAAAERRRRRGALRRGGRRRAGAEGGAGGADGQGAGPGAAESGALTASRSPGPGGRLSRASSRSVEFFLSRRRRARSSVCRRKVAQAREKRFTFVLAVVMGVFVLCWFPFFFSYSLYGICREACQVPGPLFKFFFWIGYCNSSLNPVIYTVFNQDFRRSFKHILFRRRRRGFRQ

[4] = target: T3, Alpha-2A adrenergic receptor (Homo sapiens, UniProt P08913)
T3 sequence (P08913 whole entry): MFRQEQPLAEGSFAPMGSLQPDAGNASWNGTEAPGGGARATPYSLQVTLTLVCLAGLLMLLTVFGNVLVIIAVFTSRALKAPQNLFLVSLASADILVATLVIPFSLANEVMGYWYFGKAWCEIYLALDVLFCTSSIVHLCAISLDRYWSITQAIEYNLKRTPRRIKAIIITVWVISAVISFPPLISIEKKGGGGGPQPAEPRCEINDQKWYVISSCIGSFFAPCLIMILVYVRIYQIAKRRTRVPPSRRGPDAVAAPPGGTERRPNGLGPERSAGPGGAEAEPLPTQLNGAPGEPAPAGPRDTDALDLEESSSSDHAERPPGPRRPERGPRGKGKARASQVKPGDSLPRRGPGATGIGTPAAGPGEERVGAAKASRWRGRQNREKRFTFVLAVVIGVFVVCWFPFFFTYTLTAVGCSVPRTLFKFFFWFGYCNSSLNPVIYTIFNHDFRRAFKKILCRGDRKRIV

Histamine H2 receptor = Histamine H2 receptor (Homo sapiens, UniProt P25021)
Histamine receptor H3 = Histamine receptor H3 (Canis lupus familiaris, UniProt Q865E3)
Hrh3 protein = Hrh3 protein (Rattus norvegicus, UniProt Q5PPG3)
Histamine H1 receptor = Histamine H1 receptor (Homo sapiens, UniProt P35367)
Histamine H4 receptor = Histamine H4 receptor (Homo sapiens, UniProt Q9H3N8)
Histamine H3 receptor [5] = target: Histamine H3 receptor (Homo sapiens, UniProt Q9Y5N1)
Sequence of Histamine H3 receptor (Homo sapiens, UniProt Q9Y5N1) (Q9Y5N1 whole entry): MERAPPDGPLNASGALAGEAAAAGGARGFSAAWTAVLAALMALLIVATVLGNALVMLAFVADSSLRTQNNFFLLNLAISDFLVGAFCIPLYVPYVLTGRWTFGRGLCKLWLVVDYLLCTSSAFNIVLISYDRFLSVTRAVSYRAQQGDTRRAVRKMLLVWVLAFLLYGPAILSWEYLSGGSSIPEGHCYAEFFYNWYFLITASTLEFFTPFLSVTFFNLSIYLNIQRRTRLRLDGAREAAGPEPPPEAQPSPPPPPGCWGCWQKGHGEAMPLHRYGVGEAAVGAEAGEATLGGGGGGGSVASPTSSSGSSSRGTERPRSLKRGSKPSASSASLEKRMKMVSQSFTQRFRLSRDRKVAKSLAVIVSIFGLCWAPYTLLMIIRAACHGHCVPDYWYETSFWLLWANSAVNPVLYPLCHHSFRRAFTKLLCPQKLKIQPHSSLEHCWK

Sequence of Histamine H1 receptor (P35367 whole entry): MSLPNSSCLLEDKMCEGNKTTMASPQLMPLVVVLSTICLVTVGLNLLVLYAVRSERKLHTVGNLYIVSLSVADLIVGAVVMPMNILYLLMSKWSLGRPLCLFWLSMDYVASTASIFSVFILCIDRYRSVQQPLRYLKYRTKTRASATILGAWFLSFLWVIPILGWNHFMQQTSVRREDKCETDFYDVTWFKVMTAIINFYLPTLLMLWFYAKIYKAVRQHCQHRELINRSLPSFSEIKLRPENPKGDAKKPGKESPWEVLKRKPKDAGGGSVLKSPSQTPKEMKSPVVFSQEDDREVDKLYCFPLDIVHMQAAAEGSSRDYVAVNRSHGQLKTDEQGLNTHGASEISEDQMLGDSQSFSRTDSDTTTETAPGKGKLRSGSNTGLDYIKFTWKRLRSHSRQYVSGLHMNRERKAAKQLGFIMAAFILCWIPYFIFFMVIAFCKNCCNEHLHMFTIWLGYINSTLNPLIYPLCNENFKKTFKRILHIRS
Sequence of Histamine H4 receptor (Q9H3N8 whole entry): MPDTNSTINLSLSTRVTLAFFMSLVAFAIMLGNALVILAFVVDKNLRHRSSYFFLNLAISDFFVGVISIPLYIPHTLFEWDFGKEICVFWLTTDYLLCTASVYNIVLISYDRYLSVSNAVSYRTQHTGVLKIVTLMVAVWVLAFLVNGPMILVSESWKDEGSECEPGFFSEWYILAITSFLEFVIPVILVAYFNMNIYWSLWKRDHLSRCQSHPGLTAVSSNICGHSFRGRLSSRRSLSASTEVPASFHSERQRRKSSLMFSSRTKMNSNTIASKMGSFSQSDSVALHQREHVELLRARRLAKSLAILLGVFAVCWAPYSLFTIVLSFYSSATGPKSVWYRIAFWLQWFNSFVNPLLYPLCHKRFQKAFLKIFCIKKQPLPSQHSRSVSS
Sequence of Hrh3 protein (Q5PPG3 whole entry): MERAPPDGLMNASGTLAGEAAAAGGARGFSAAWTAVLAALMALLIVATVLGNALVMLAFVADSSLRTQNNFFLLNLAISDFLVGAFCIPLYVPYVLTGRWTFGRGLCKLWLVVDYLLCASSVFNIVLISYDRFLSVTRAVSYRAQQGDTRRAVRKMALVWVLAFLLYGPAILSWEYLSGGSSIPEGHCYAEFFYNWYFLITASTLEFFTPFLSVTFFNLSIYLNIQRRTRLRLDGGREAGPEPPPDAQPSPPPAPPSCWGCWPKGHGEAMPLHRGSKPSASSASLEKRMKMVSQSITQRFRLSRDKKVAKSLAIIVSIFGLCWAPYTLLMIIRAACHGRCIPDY
Sequence of Histamine H2 receptor (P25021 whole entry): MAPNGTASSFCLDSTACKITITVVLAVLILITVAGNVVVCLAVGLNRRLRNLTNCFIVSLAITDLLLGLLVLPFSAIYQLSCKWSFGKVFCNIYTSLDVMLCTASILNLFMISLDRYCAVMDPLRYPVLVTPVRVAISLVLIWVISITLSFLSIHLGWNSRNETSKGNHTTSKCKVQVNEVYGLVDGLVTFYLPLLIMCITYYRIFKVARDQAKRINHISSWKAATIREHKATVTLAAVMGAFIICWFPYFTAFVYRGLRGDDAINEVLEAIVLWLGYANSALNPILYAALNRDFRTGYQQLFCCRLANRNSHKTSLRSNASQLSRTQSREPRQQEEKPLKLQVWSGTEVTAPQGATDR
Sequence of Histamine H3 receptor (Cavia porcellus, UniProt Q9JI35) (Q9JI35 whole entry): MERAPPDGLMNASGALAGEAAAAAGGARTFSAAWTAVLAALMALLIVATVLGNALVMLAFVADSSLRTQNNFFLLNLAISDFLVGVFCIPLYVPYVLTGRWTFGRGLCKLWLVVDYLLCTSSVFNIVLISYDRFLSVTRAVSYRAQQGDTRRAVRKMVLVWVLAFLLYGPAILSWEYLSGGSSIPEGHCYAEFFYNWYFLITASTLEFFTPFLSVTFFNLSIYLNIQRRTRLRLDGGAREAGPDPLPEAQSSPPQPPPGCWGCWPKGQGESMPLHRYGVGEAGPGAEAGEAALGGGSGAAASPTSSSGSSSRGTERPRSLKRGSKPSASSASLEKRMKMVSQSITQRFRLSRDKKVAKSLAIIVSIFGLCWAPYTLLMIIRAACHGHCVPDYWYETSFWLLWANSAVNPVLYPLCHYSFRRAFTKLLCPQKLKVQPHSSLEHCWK
Sequence of Histamine receptor H3 (Q865E3 whole entry): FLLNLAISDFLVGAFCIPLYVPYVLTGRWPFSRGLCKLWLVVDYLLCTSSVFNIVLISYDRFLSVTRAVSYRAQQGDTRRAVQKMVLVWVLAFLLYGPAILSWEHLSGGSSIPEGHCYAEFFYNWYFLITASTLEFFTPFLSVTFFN

SMILES	Ki [1] [nM]	Ki (Histamine H3 receptor [2]) [nM]	Ki [3] [nM]	Ki [4] [nM]	Ki (Histamine H2 receptor) [nM]	Ki (Histamine receptor H3) [nM]	Ki (Hrh3 protein)	Ki (Histamine H1 receptor) [nM]	Ki (Histamine H4 receptor) [nM]	Ki (Histamine H3 receptor [5])
S=C(NC1CCCCC1)N1CCC(c2cnc[nH]2)CC1	2290	4.57	347	126	> 10000	6.76	3.63 nM and 7.08 nM	> 10000	–	–
O=C(c1ccc(OCCCc2cnc[nH]2)cc1)C1CC1	302	1.74	–	42.7	> 10000	5.75	0.51 nM and 0.63 nM	> 10000	1860	–
C[C@@H](NC(=O)c1ccco1)C(=O)N1CCN(CCCOc2ccc(C(=O)C3CC3)cc2)CC1	> 10000	2.4	2400	> 10000	> 10000	4.27	0.71 nM and 0.72 nM	3980	> 10000	–
CCn1c(=O)[nH]c(=O)c2conc21 [A-304121]	–	17.4	2880	> 10000	> 10000	46.8	2.51 nM and 1.26 nM	> 10000	> 10000	759 nM and 813 nM
NC(=NCc1ccc(Cl)cc1)SCCCc1cnc[nH]1 [VUF 9153]	7.41	0.22	15.9	17.4	2510	0.08	–	6310	41.7	–
